# Assay results from ChEMBL document CHEMBL1131493, “Inhibitors of farnesyl protein transferase. 4-Amido, 4-carbamoyl, and 4-carboxamido derivatives of 1-(8-chloro-6,11-dihydro-5H-benzo[5,6]- cyclohepta[1,2-b]pyridin-11-yl)piperazine and 1-(3-bromo-8-chloro-6,11- dihydro-5H-benzo[5,6]cyclohepta[1,2-b]pyridin-11-yl)piperazine” (J Med Chem, 1998).
# Target: T1, Protein farnesyltransferase (Homo sapiens, UniProt P49354+P49356)
# Assay: In vitro inhibition of farnesyltransferase farnesylation of the H-ras oncogene
# Assay type: protein-complex assay
# Parameters: Inhibition: concentration or dose not given beside the values
Compound,IC50 [µM],Inhibition [%]
CN1CCCC(NC(=O)N2CCN(C3c4ccc(Cl)cc4CCc4cccnc43)CC2)C1 (stereo not given),0.66,–
CC(S)C(=O)NCC(=O)N1CCN(C2c3ccc(Cl)cc3CCc3cccnc32)CC1 (stereo not given),2.78,–
CCCC[C@H]1CN(C2c3ccc(Cl)cc3CCc3cc(Br)cnc32)CCN1C(=O)CC1CCN(C(N)=O)CC1 (stereo not given in full),0.027,–
O=C(NCc1ccccc1)N1CCN(C2c3ccc(Cl)cc3CCc3cccnc32)CC1 (stereo not given),4.1,–
O=C(Oc1ccccc1)N1CCN(C2c3ccc(Cl)cc3C=Cc3cccnc32)CC1 (stereo not given),0.88,–
COCC[C@H]1CN(C2c3ccc(Cl)cc3CCc3cc(Br)cnc32)CCN1C(=O)CC1CCN(C(N)=O)CC1 (stereo not given in full),0.092,–
CC(C(=O)N1CCN(C2c3ccc(Cl)cc3CCc3cccnc32)CC1)c1cccnc1 (stereo not given),4.9,–
O=C(Cc1ccncc1)NCCNC1c2ccc(Cl)cc2CCc2cccnc21 (stereo not given),25.8,–
CC(C)(C(=O)N1CCN(C2c3ccc(Cl)cc3CCc3cccnc32)CC1)c1ccncc1 (stereo not given),1.74,–
CN1CCCC(OC(=O)N2CCN(C3c4ccc(Cl)cc4CCc4cc(Br)cnc43)CC2)C1 (stereo not given),0.3,–
O=C(Nc1ccc[n+]([O-])c1)N1CCN(C2c3ccc(Cl)cc3CCc3cc(Br)cnc32)CC1 (stereo not given),0.24,–
CN1CCCC(CC(=O)N2CCN(C3c4ccc(Cl)cc4CCc4cccnc43)CC2)C1 (stereo not given),1.19,–
O=C(C1CCCC2NCCCC21)N1CCN(C2c3ccc(Cl)cc3CCc3cc(Br)cnc32)CC1 (stereo not given),–,23
O=C(Cc1cccnc1)N1CCN(C(c2ccncc2)c2ccc(Cl)cc2)CC1 (stereo not given),48,–
O=C(c1cccc2ncccc12)N1CCN(C2c3ccc(Cl)cc3CCc3cccnc32)CC1 (stereo not given),–,15
NC(=O)N1CCCC(CC(=O)N2CCN(C3c4ccc(Cl)cc4CCc4cccnc43)CC2)C1 (stereo not given),1.75,–
O=C(Cc1cc[n+]([O-])cc1)N1CCN(C2c3ccc(Cl)cc3CCc3cccnc32)CC1 (stereo not given),0.74,–
CNC(=O)N1CCC[C@@H](CC(=O)N2CCN(C3c4ccc(Cl)cc4CCc4cccnc43)CC2)C1 (stereo not given in full),7,–
N[C@@H](CO)C(=O)N1CCC(CC(=O)N2CCN(C3c4ccc(Cl)cc4CCc4cccnc43)CC2)CC1 (stereo not given in full),1.1,–
N[C@@H](CS)CN1CCN(C2c3ccc(Cl)cc3CCc3cc(Br)cnc32)CC1 (stereo not given in full),–,19
CC(C)(C)NC(=O)N1CCC(CC(=O)N2CCN(C3c4ccc(Cl)cc4CCc4cccnc43)CC2)CC1 (stereo not given),1,–
CN1CCC(OC(=O)N2CCN(C3c4ccc(Cl)cc4CCc4cccnc43)CC2)CC1 (stereo not given),–,35
O=C(Nc1cc[n+]([O-])cc1)N1CCN(C2c3ccc(Cl)cc3CCc3cccnc32)CC1 (stereo not given),1.8,–
CC(C)(C)OC(=O)N1CCC(CC(=O)N2CCN(C3c4ccc(Cl)cc4CCc4cc(Br)cnc43)CC2)CC1 (stereo not given),1.29,–
NC(=O)N1CCCc2c(C(=O)N3CCN(C4c5ccc(Cl)cc5CCc5cc(Br)cnc54)CC3)cccc21 (stereo not given),–,45
O=C(C1CCNCC1)N1CCN(C2c3ccc(Cl)cc3CCc3cccnc32)CC1 (stereo not given),11.3,–
O=C(Cc1cccnc1)N1CCN(C(=O)c2ccc(Cl)cc2)CC1,–,32

Compound,IC50 [µM],Inhibition [%]
O=C(N1CCN(C2c3ccc(Cl)cc3CCc3cc(Br)cnc32)CC1)n1ccnc1 (stereo not given),1.77,–
COC(=O)N1CCCC(CC(=O)N2CCN(C3c4ccc(Cl)cc4CCc4cccnc43)CC2)C1 (stereo not given),7,–
CN1CCCC(OC(=O)N2CCN(C3c4ccc(Cl)cc4CCc4cccnc43)CC2)C1 (stereo not given),2.1,–
CC(C)(C(=O)N1CCN(C2c3ccc(Cl)cc3CCc3cccnc32)CC1)c1cc[n+]([O-])cc1 (stereo not given),2.2,–
CSCC[C@H](N)C(=O)N1CCC(CC(=O)N2CCN(C3c4ccc(Cl)cc4CCc4cccnc43)CC2)CC1 (stereo not given in full),1.89,–
CNC(=S)N1CCC(CC(=O)N2CCN(C3c4ccc(Cl)cc4CCc4cccnc43)CC2)CC1 (stereo not given),0.88,–
NCNC(=O)N1CCC(CC(=O)N2CCN(C3c4ccc(Cl)cc4CCc4cccnc43)CC2)CC1 (stereo not given),2.5,–
N[C@@H](CS)C(=O)N1CCC(CC(=O)N2CCN(C3c4ccc(Cl)cc4CCc4cc(Br)cnc43)CC2)CC1 (stereo not given in full),0.23,–
Clc1ccc2c(c1)CCc1cccnc1C2N1CCN(CCc2cccnc2)CC1 (stereo not given),–,23
Clc1ccc2c(c1)CCc1cccnc1C2N1CCNCC1 (stereo not given),30.3,–
NC(=O)N1CCC(CC(=O)N2CCN(C3c4ccc(Cl)cc4CCc4cccnc43)CC2)CC1 (stereo not given),0.82,–
CC(=O)N1CCCC(C(=O)N2CCN(C3c4ccc(Cl)cc4CCc4cccnc43)CC2)C1 (stereo not given),4.3,–
O=C(CC1CCCNC1)N1CCN(C2c3ccc(Cl)cc3CCc3cccnc32)CC1 (stereo not given),1.1,–
CN1CCC(CC(=O)N2CCN([C@@H]3c4ccc(Cl)cc4CCc4cccnc43)CC2)CC1,1.8,–
CCNC(=O)N1CCC(CC(=O)N2CCN(C3c4ccc(Cl)cc4CCc4cccnc43)CC2)CC1 (stereo not given),0.92,–
CC(=O)N1CCCC(CC(=O)N2CCN(C3c4ccc(Cl)cc4CCc4cccnc43)CC2)C1 (stereo not given),3.1,–
O=C(Nc1cccnc1)N1CCN([C@@H]2c3ccc(Cl)cc3CCc3cccnc32)CC1,3.2,–
CN(C)c1ccc(C(=O)N2CCN(C3c4ccc(Cl)cc4CCc4cccnc43)CC2)cc1 (stereo not given),20.2,–
CN1CCCC(C(=O)N2CCN(C3c4ccc(Cl)cc4CCc4cccnc43)CC2)C1 (stereo not given),6.8,–
CC(C)(C(=O)N1CCN(C2c3ccc(Cl)cc3CCc3cccnc32)CC1)c1ccc[n+]([O-])c1 (stereo not given),1.26,–
O=C(c1cccc2cccnc12)N1CCN(C2c3ccc(Cl)cc3CCc3cc(Br)cnc32)CC1 (stereo not given),1.8,–
NC(=O)N1CCC(CC(=O)N2CCN(C3c4ccc(Cl)cc4C=Cc4cc(Br)cnc43)CC2)CC1 (stereo not given),0.045,–
O=C(c1cccc2c1ccc[n+]2[O-])N1CCN(C2c3ccc(Cl)cc3CCc3cc(Br)cnc32)CC1 (stereo not given),–,38
CC(=O)N1CCC(CC(=O)N2CCN([C@@H]3c4ccc(Cl)cc4CCc4cccnc43)CC2)CC1,3.5,–
O=C(CC1CCNCC1)N1CCN(C2c3ccc(Cl)cc3C=Cc3cc(Br)cnc32)CC1 (stereo not given),0.083,–
CN1CCCC(NC(=O)N2CCN(C3c4ccc(Cl)cc4CCc4cc(Br)cnc43)CC2)C1 (stereo not given),0.054,–
NC(=O)N1CCCC2C(C(=O)N3CCN(C4c5ccc(Cl)cc5CCc5cc(Br)cnc54)CC3)CCCC21 (stereo not given),1.4,–

Compound,IC50 [µM],Inhibition [%]
O=C(N1CCN(C2c3ccc(Cl)cc3CCc3cccnc32)CC1)n1ccnc1 (stereo not given),9.8,–
CN1CCC(CC(=O)N2CCN([C@H]3c4ccc(Cl)cc4CCc4cccnc43)CC2)CC1,0.64,–
O=C(Cc1cc[n+]([O-])cc1)N1CCN(C2c3ccc(Cl)cc3CCc3c(Cl)ccnc32)CC1 (stereo not given),0.33,–
O=C(c1cccc2ncccc12)N1CCN(C2c3ccc(Cl)cc3CCc3cc(Br)cnc32)CC1 (stereo not given),–,38
C[C@H](N)C(=O)N1CCC(CC(=O)N2CCN(C3c4ccc(Cl)cc4CCc4cccnc43)CC2)CC1 (stereo not given in full),2.5,–
CN1CCCC(CC(=O)N2CCN([C@H]3c4ccc(Cl)cc4CCc4cccnc43)CC2)C1 (stereo not given in full),0.6,–
COCC[C@H]1CN(C2c3ccc(Cl)cc3CCc3cc(Br)cnc32)CCN1C(=O)CC1CCNCC1 (stereo not given in full),0.069,–
CC(=O)N1CCC(C(=O)N2CCN([C@@H]3c4ccc(Cl)cc4CCc4cccnc43)CC2)CC1,4.1,–
O=C(Oc1ccccc1)N1CCN(C2c3ccc(Cl)cc3CCc3cccnc32)CC1 (stereo not given),0.8,–
CCN1CCC(CC(=O)N2CCN(C3c4ccc(Cl)cc4CCc4cccnc43)CC2)CC1 (stereo not given),1.27,–
O=C(Nc1ccc[n+]([O-])c1)N1CCN(C2c3ccc(Cl)cc3CCc3cccnc32)CC1 (stereo not given),2.2,–
CC(C)(C)OC(=O)N1CCC(C(=O)N2CCN(C3c4ccc(Cl)cc4CCc4cccnc43)CC2)CC1 (stereo not given),–,20
CCCNC(=O)N1CCC(CC(=O)N2CCN(C3c4ccc(Cl)cc4CCc4cccnc43)CC2)CC1 (stereo not given),0.88,–
CN1CCC(NC(=O)N2CCN(C3c4ccc(Cl)cc4CCc4cccnc43)CC2)CC1 (stereo not given),0.47,–
O=C(CC1CCNCC1)N1CCN([C@H]2c3ccc(Cl)cc3CCc3cc(Br)cnc32)CC1,0.078,–
CC(C)(C)NC(=O)N1CCC(CC(=O)N2CCN(C3c4ccc(Cl)cc4CCc4cc(Br)cnc43)CC2)CC1 (stereo not given),0.108,–
CC(C)(C)OC(=O)NCC(=O)N1CCN(C2c3ccc(Cl)cc3CCc3cccnc32)CC1 (stereo not given),4.8,–
O=C(CC1CCNCC1)N1CCN(C2c3ccc(Cl)cc3CCc3cccnc32)CC1 (stereo not given),1.25,–
CN1CCCC(CC(=O)N2CCN([C@@H]3c4ccc(Cl)cc4CCc4cccnc43)CC2)C1 (stereo not given in full),0.7,–
CC(C)(C(=O)N1CCN(C2c3ccc(Cl)cc3CCc3cccnc32)CC1)c1ccccc1 (stereo not given),3.3,–
CNC(=O)N1CCC(CC(=O)N2CCN(C3c4ccc(Cl)cc4CCc4cccnc43)CC2)CC1 (stereo not given),1.05,–
N[C@@H](CS)C(=O)N1CCN(C2c3ccc(Cl)cc3CCc3cc(Br)cnc32)CC1 (stereo not given in full),2.1,–
CC(C)(C)OC(=O)N1CCC(CC(=O)N2CCN(C3c4ccc(Cl)cc4CCc4cccnc43)CC2)CC1 (stereo not given),7.4,–
O=C(Oc1ccc[n+]([O-])c1)N1CCN(C2c3ccc(Cl)cc3CCc3cccnc32)CC1 (stereo not given),3.1,–
COC(=O)N1CCC(CC(=O)N2CCN(C3c4ccc(Cl)cc4CCc4cccnc43)CC2)CC1 (stereo not given),1.3,–

# Target: T1, Protein farnesyltransferase
# Assay: Inhibition of Farnesyltransferase from Ras-CVLS or Ras-CVLL in Cos-7 monkey kidney cells
# Assay type: cell-based, Chlorocebus aethiops
row,Compound,IC50 [µM]
1,CCCC[C@H]1CN(C2c3ccc(Cl)cc3CCc3cc(Br)cnc32)CCN1C(=O)CC1CCN(C(N)=O)CC1 (stereo not given in full),0.6
2,COCC[C@H]1CN(C2c3ccc(Cl)cc3CCc3cc(Br)cnc32)CCN1C(=O)CC1CCN(C(N)=O)CC1 (stereo not given in full),1.7
3,O=C(Cc1ccccc1)N1CCN(C2c3ccc(Cl)cc3CCc3cccnc32)CC1 (stereo not given),12
4,O=C(Nc1ccc[n+]([O-])c1)N1CCN(C2c3ccc(Cl)cc3CCc3cc(Br)cnc32)CC1 (stereo not given),3.6
5,CN1CCCC(CC(=O)N2CCN(C3c4ccc(Cl)cc4CCc4cccnc43)CC2)C1 (stereo not given),2.4
6,CC(C)(C(=O)N1CCN(C2c3ccc(Cl)cc3CCc3cccnc32)CC1)c1cccnc1 (stereo not given),6.1
